According to patent EP2727916A1, “Neuroprotective multi-target directed drugs” (Universitat Autònoma de Barcelona, priority 2012, dated 2014):
Entries after “also recorded” stand apart in the source; their conditions may differ.

Assays:
[1] = molecular target: electrophorus electricus acetylcholinesterase (eeAChE) (Electrophorus electricus, UniProt O42275); assay: biochemical; assay type: biochemical
[2] = molecular target: equine serum butyrylcholinesterase (eqBuChE) (Equus caballus, UniProt P81908); assay: biochemical; assay type: biochemical
Sequence of equine serum butyrylcholinesterase (eqBuChE) (P81908 whole entry): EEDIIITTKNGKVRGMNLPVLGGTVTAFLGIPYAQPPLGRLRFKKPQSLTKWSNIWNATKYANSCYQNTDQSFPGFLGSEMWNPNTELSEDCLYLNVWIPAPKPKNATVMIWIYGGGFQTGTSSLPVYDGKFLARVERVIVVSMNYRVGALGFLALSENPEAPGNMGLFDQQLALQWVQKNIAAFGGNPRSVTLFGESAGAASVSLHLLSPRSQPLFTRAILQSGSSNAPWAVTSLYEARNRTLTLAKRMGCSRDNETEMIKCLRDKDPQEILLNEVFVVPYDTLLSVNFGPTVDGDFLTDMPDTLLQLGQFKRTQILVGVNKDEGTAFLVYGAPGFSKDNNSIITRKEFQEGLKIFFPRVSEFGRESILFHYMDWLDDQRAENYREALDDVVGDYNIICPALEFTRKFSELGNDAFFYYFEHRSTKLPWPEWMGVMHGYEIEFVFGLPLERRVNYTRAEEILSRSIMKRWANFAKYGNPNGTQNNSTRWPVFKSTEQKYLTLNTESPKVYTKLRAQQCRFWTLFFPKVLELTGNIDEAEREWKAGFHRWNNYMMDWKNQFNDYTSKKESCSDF

[3] = molecular target: EeAChE (Electrophorus electricus, UniProt O42275); assay: Kinetic study of EeAChE inhibition (Lineweaver-Burk plots); assay type: biochemical
Sequence of EeAChE (O42275 24-633): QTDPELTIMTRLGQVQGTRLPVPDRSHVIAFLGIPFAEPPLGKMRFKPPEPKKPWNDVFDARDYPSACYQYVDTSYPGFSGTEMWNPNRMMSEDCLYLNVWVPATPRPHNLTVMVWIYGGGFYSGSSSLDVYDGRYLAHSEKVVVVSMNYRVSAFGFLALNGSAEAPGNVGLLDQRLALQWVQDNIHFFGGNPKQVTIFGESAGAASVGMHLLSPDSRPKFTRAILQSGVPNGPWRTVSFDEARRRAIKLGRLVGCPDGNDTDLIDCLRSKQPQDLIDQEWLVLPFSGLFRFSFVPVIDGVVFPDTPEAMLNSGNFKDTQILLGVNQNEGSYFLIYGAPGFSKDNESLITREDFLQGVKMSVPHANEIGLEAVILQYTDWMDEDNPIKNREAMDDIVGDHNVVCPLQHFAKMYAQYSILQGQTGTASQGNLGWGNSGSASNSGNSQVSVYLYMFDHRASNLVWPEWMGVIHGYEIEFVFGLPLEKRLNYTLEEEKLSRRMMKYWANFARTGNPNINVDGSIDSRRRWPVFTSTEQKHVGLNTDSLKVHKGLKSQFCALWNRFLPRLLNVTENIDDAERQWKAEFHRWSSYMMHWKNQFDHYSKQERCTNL
Protocol: (§1) Lineweaver-Burk reciprocal plots of initial velocity and substrate concentrations (0.1-1 mM) are presented. […] Lineweaver-Burk reciprocal plots of initial velocity and substrate concentrations (0.1-1 mM) are presented. […] Lineweaver-Burk reciprocal plots of initial velocity and substrate concentrations (0.1-1 mM) are presented. […] Three consecutive centrifuges were performed with buffer. […] 5 µM). All solution were made using Tris buffer pH7.4. […] 5 µM). All solution were made using Tris buffer pH7.4. […] 5 µM). All solution were made using Tris buffer pH7.4. Spectra were obtained after a Short-time incubation
To determine the type of the EeAChE inhibition mechanism of these compounds, a kinetic study was carried out on inhibitor 6.

[4] = molecular target: T1, MAO-A (Rattus norvegicus, UniProt P21396); assay: Reversibility study of MAO-A inhibition (centrifugation and washing); assay type: biochemical
T1 construct: from tissue; host or cells: rat brain homogenate per the methods
T1 sequence (P21396 1-526): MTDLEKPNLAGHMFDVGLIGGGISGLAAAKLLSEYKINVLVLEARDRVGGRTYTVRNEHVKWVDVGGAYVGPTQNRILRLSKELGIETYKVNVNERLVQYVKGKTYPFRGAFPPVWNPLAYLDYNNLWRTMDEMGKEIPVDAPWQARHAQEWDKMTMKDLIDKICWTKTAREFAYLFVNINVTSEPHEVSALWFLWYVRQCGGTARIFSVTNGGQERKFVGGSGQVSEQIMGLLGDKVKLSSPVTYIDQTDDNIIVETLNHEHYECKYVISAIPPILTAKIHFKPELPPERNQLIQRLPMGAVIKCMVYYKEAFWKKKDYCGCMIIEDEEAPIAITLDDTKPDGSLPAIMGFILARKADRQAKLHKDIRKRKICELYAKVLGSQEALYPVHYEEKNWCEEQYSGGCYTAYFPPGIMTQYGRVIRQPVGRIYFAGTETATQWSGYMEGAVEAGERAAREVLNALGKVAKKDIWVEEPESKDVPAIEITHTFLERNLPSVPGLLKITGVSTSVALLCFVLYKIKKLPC
Protocol: as §1

[5] = molecular target: T2, MAO-B (Rattus norvegicus, UniProt P19643); assay: Reversibility study of MAO-B inhibition (centrifugation and washing); assay type: biochemical
T2 construct: from tissue; host or cells: rat brain homogenate per the methods
T2 sequence (P19643 1-520): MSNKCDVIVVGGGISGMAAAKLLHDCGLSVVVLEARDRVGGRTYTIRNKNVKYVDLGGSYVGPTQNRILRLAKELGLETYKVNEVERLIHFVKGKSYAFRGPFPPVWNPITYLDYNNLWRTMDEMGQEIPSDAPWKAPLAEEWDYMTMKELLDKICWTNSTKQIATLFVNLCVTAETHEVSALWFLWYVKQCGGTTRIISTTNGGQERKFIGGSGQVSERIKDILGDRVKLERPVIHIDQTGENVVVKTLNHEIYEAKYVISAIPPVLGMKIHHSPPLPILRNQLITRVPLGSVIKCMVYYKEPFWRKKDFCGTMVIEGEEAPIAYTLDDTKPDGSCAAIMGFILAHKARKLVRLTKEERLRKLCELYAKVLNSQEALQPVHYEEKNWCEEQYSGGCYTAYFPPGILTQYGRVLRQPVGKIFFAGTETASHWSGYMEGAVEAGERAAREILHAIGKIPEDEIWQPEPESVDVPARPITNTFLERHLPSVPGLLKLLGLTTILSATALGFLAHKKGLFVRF
Protocol: as §1

[6] = molecular target: T1, MAO-A; assay: Time-dependence of MAO-A inhibition (pre-incubation times); assay type: biochemical
Protocol: as §1
(§2) Independent inhibition assays were also performed at different pre-incubation periods for both two MAO isoforms (Figure 6). […]

[7] = molecular target: T2, MAO-B; assay: Time-dependence of MAO-B inhibition (pre-incubation times); assay type: biochemical
Protocol: as §1, §2

[8] = Metal binding assay, spectrophotometric detection of Cu(II) complex; assay type: physicochemical; conditions: 10 µM, Tris buffer pH7.4, Cu(SO4) 6.25 and 12.5 µM, few minutes after addition
Protocol: as §1
It is known that 8-quinolinol is a strong chelator for biometals such iron and copper. This is an important precondition for the antioxidative-type drugs because it is the excessive iron stores and iron-mediated generation of free radicals in the brain that are thought to be associated with neurodegenerative diseases. Therefore, only chelators with a higher selectivity for iron over copper are expected to chelate iron instead of copper and have potential neuroprotective effects. […] A spectrophotometric method is used for measurement of the copper/iron-complexes stability constants of the compounds.
The metal binding assay was performed by the spectrophotometric detection of the formation of Fe(III)- and Cu(II)-6 complex.

[9] = molecular target: T3, ratMAO-A (Rattus norvegicus, UniProt P21396); assay: Kinetic study of MAO-A inhibition (Lineweaver-Burk plots); assay type: biochemical; parameters: from tissue; host or cells: rat brain homogenate per the methods
T3 sequence (P21396 1-526): T1 sequence (P21396 1-526)
Protocol: as §1

[10] = molecular target: T4, ratMAO-B (Rattus norvegicus, UniProt P19643); assay: Kinetic study of MAO-B inhibition (Lineweaver-Burk plots); assay type: biochemical; parameters: from tissue; host or cells: rat brain homogenate per the methods
T4 sequence (P19643 1-520): T2 sequence (P19643 1-520)
Protocol: as §1

[11] = molecular target: T4, ratMAO-B; assay: MAO-B inhibition, radiometric method of Fowler and Tipton (14C PEA); assay type: biochemical; parameters: MAO-A and MAO-B activities were determined in rat brain homogenate; from tissue; host or cells: rat brain homogenate per the methods
[12] = Lineweaver-Burk reciprocal plots
[13] = estimated from the slopes of double reciprocal plots
[14] = 20 µM, pre-incubation times 0-360 min

Sequence of electrophorus electricus acetylcholinesterase (eeAChE) (O42275 24-633): as the sequence (O42275 24-633) above

C#CCN(Cc1ccc(O)c2ncccc12)C(C#N)CCC1CCN(Cc2ccccc2)CC1 (stereo not shown) [Compound 6, 4-(1-benzylpiperidin-4-yl)-2-(((8-hydroxyquinolin-5-yl)methyl)(prop-2-yny)amino)butanenitrile]
IC50 [1]: 1.77 ± 0.1 µM | fold more active than M-30 for the inhibition of AChE ([1]; compared with M-30): 64 fold | fold more active than donepezil 1 for eqBuChE inhibition [2]: 4.5 fold | IC50 ([2]; 20 minutes incubation at 37°C, mean ± standard error of the mean, read-out: IC50 eqBuChE): 1.63 ± 0.25 µM | BuChE/ AChE ([2]; ratio of IC50 values): 0.92 | type of EeAChE inhibition mechanism [3, 12]: mixed-type inhibition | Ki [3, 13]: 1.21 ± 0.25 µM | reversibility of MAO-A inhibition ([4]; 30 min inhibition (6 at 10 µM, clorgyline 50 nM), three consecutive centrifugations and washings with buffer): reversibly inhibited | MAO-A activity recovering ([4]; inhibited at 10 µM for 30 min, three consecutive centrifuges with buffer, mean ± SEM): 56.5 ± 9.3% | reversibility of MAO-B inhibition ([5]; 30 min inhibition (6 at 20 µM, I-deprenyl 20 nM), three consecutive centrifugations and washings with buffer): reversibly inhibited | MAO-B activity recovering ([5]; inhibited at 20 µM for 30 min, three consecutive centrifuges with buffer, mean ± SEM): 55.8 ± 4.0% | pre-incubation period to complete MAO-A activity inhibition [6, 14]: ≥ 180 min | time-dependence of MAO-A inhibition [6, 14]: irreversible behaviour; also recorded: time-dependent | IC50 ([6]; pre-incubation time 0 min): 29.1 µM | IC50 ([6]; pre-incubation time 30 min): 5.8 µM | IC50 ([6]; pre-incubation time 60 min): 2.3 µM | IC50 ([6]; pre-incubation time 240 min): 0.7 µM | pre-incubation period to complete MAO-B activity inhibition [7, 14]: ≥ 180 min | time-dependence of MAO-B inhibition [7, 14]: irreversible behaviour; also recorded: time-dependent | IC50 ([7]; pre-incubation time 0 min): 61.7 µM | IC50 ([7]; pre-incubation time 30 min): 9.3 µM | IC50 ([7]; pre-incubation time 60 min): 3.3 µM | IC50 ([7]; pre-incubation time 240 min): 1.2 µM | formation of Cu(II)-6 complex, UV-vis spectrum change [8]: The 240 nm-band completely dissapeared while a new one appeared at 275 nm | type of MAO-A inhibition mechanism [9, 12]: non-competitive inhibition | Ki [9, 13]: 8.41 ± 1.32 µM | type of MAO-B inhibition mechanism [10, 12]: non-competitive inhibition | Ki [10, 13]: 10.8 ± 2.43 µM | IC50 [11]: 10.2 ± 0.9 µM | MAO-B/ MAO-A [11]: 1.7 | fold less active than M-30 for the inhibition of MAO-B [11]: 179 fold
